According to patent US20230398101A1, “Co-agents as Therapy Against Anaerobic Pathogens” (priority 2022, published 2023):

Assays:
Test in all cases: Aerobic agar-dilution AST of facultative anaerobes (MIC, checkerboard FIC)
Format in all cases: cell-based
Staphylococcus aureus = system: Staphylococcus aureus; set-up: MIC (Table 10C, head prints neither MIC nor unit): unit not given beside the values; conditions: for MIC: Staphylococcus aureus; for MIC (Table 10C, head prints neither MIC nor unit): strain (MR) 920516, aerobic
Acinetobacter baumannii = Acinetobacter baumannii 919899, read-out: MIC
Pseudomonas aeruginosa = conditions: Pseudomonas aeruginosa, Pseudomonas aeruginosa 945748; read-out: MIC
Enterococcus faecalis = conditions: Enterococcus faecalis

SMILES	MIC (Staphylococcus aureus) [µg/mL]	MIC (Staphylococcus aureus; ATCC33591) [µg/mL]	MIC (Table 10C, head prints neither MIC nor unit) (Staphylococcus aureus)	further results
CCCCCCCCCCNCCN[C@@]1(C)C[C@H](O[C@H]2[C@H](Oc3c4cc5cc3Oc3ccc(cc3Cl)[C@@H](O)[C@@H](NC(=O)[C@@H](CC(C)C)NC)C(=O)N[C@@H](CC(N)=O)C(=O)N[C@H]5C(=O)N[C@H]3C(=O)N[C@H](C(=O)N[C@H](C(=O)O)c5cc(O)c(CNCP(=O)(O)O)c(O)c5-c5cc3ccc5O)[C@H](O)c3ccc(c(Cl)c3)O4)O[C@H](CO)[C@@H](O)[C@@H]2O)O[C@@H](C)[C@H]1O [telavancin]	0.25	0.125	–	–
C[C@@H](O)[C@H]1C(=O)N2C(C(=O)O)=C(S[C@@H]3CN[C@H](C(=O)N(C)C)C3)[C@H](C)[C@H]12 [meropenem]	–	–	–	MIC (Acinetobacter baumannii): > 64 µg/mL; MIC (Pseudomonas aeruginosa): 8 µg/mL
CC(C)c1ccc(Cn2ccc3c4c(N)nc(NC5CC5)nc4ccc32)cc1 [Q]	–	–	32	–
CN[C@H](CC(C)C)C(=O)N[C@H]1C(=O)N[C@@H](CC(N)=O)C(=O)N[C@H]2C(=O)N[C@H]3C(=O)N[C@H](C(=O)N[C@H](C(=O)O)c4cc(O)cc(O)c4-c4cc3ccc4O)[C@H](O)c3ccc(c(Cl)c3)Oc3cc2cc(c3O[C@@H]2O[C@H](CO)[C@@H](O)[C@H](O)[C@H]2O[C@H]2C[C@](C)(N)[C@H](O)[C@H](C)O2)Oc2ccc(cc2Cl)[C@H]1O [vancomycin]	1	2	–	MIC (Enterococcus faecalis): 1 µg/mL; MIC (Enterococcus faecalis; ATCC51559): > 32 µg/mL
Cc1cc(NS(=O)(=O)c2ccc(N)cc2)no1 [S, sulfamethoxazole]	–	–	>608	–
